# From patent US6166290A, “Glutathione-S-conjugate transport in plants” (The Trustees of the University of Pennsylvania, priority 1997, dated 2000)
# Several values for one entry are separate records, joined by “and”; a condition that tells them apart may be missing. Equal values may be shown once.
# Tests used:
# [1] = test system: vacuolar membrane vesicles purified from DTY167 cells (ycf1Δ mutant); type: biochemical, Saccharomyces cerevisiae; conditions: 5 μM gramicidin D, GSH, GSSG 1 mM, GS-conjugates 100 μM
# Outline: (§1)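 ATP-dependent [3H]DNP-GS (66.2 μM) transport measured by filtration and scintillation counting of Ficoll-purified yeast vacuolar vesicles (DTY165 wild type; DTY167 ycf1Δ), 1–60 min at 25 °C in sorbitol/Tris-Mes pH 8.0 with 3 mM ATP, 3 mM MgSO4 and gramicidin-D. Nonenergized uptake without ATP/Mg2+.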
# [2] = test system: DTY167 cells; assay: Fluorescence microscopy of vacuolar bimane-GS accumulation, DTY167 cells; type: cell-based, Saccharomyces cerevisiae; conditions: 100 μM monochlorobimane, 6 hours
# Description: (§2) Cells were grown in YPD medium for 24 hours at 30° C. to an OD600 nm of approximately 1.4, and 100 μl aliquots of the suspensions were transferred to 15 ml volumes of fresh YPD medium containing 100 μM syn-(ClCH2,CH3)-1,5-diazabicyclo-[3.3.0]-[…] (monochlorobimane) (Kosower et al., 1980, J Am. Chem. Soc. 102:4983-4993). After incubation for 6 hours, the cells were pelleted by centrifugation, washed twice with YPD medium lacking monochlorobimane, and viewed without fixation under an Olympus BH-2 fluorescence microscope equipped with a BP-490 UV excitation filter, AFC-0515 barrier filter, and Nomarski optics attachment.
# [3] = target: T1, YCF1 (vacuolar membrane vesicles purified from DTY165 cells) (Saccharomyces cerevisiae, UniProt P39109); assay: [3H]DNP-GS uptake by vacuolar membrane vesicles purified from DTY165 cells; type: biochemical
# T1 construct: endogenous in cells; host or cells: S. cerevisiae DTY165 (wild type YCF1), vacuolar membrane vesicles
# Outline: as §1
# [4] = test system: vacuolar membrane vesicles purified from DTY167 cells (ycf1Δ mutant); type: biochemical, Saccharomyces cerevisiae
# Description: In experiments involving cadmium transport, dithiothreitol and EGTA were removed from the suspension medium to prevent the attenuation of YCF1-dependent Cd^2+ transport otherwise exerted by these compounds. Vesiculated vacuolar membranes were subjected to three cycles of 50-fold dilution into simplified suspension medium (1.1 M glycerol, 5 mM Tris-Mes, pH 8.0), centrifugation at 100,000× g for 35 minutes and resuspension in the same medium before use.
# Singly radiolabeled ^109 Cd.GSn and doubly radio-labeled ^109 Cd[^3 H].GS^n complexes were prepared by sequential gel-filtrationand anion-exchange chromatography of the reaction products generated by incubating 20 mM ^109 CdSO4 (78.4 mCi/mmol) with 40 mM GSH or 40 mM [^3 H]GSH (240 mCi/mmol) in 15 ml 10 mM phosphate buffer (pH 8.0) containing 150 mM KNO3 at 45° C. for 24 hours. For gel-filtration, 2 ml aliquots of the reaction mixture were applied to a column (40×1.5 cm ID) packed with water-equilibrated Sephadex G-1 5, eluted with deionized water and ^109 Cd and/or ^3 H in the fractions was measured by liquid scintillation counting. The fractions encompassed by each of the two ^109 Cd.GSn peaks identified were pooled, lyophilized and redissolved in 4 ml of loading buffer (5 mM Tris-Mes, pH 8.0). For anion-exchange chromatography, 0.5 ml aliquots of the resuspended lyophilizates from gel-filtration chromatography were applied to a Mono-Q HR5/5 column (Pharmacia) equilibrated with the same buffer. Elution was with a linear gradient of NaCl (0.5 ml/minute; 0-500 mM) dissolved in loading buffer. The individual fractions corresponding to the major peaks of ^109 Cd obtained from the Mono-Q column (one each for the peaks resolved by gel-filtration chromatography) were pooled, lyophilized and resuspended in 4 ml deionized water after liquid scintillation counting.
# MgATP-energized, uncoupler-insensitive ^109 Cd^2+ uptake by vacuolar membrane vesicles was measured at 25° C. in 200 μl reaction volumes containing 3 mM ATP, 3 mM MgSO4, 5 μM gramicidin-D, 10 mM creatine phosphate, 16 units/ml creatine kinase, 50 mM KCl, 400 mM sorbitol, 25 mM Tris-Mes (pH 8.0) and the indicated concentrations of ^109 CdSO4, GSH or ^109 Cd- and/or ^3 H-labeled purified Cd.GSn complexes as described herein except that the wash media contained 100 μM CdSO4 in addition to sorbitol (400 mM) and Tris-Mes (3 mM, pH 8.0).
# [5] = target: T1, YCF1 (vacuolar membrane vesicles purified from DTY165 cells); assay: biochemical; type: biochemical
# Outline: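 Vacuolar vesicles from wild-type (DTY165) or ycf1Δ (DTY167) yeast, washed free of DTT/EGTA into glycerol/Tris-Mes pH 8.0. MgATP-energized, uncoupler-insensitive uptake of 109Cd2+, GSH or purified radiolabeled Cd·GSn complexes measured at 25°C. Medium: 3 mM ATP/MgSO4, ATP-regenerating system, 5 μM gramicidin-D, Tris-Mes pH 8.0; washes contained 100 μM CdSO4.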
# [6] = test system: YCF1-specific mRNA; conditions: 24 hour pretreatment; CdSO4 200 μM, CDNB 150 μM
# [7] = test system: DTY165 cells; assay: Fluorescence microscopy of vacuolar bimane-GS accumulation, DTY165 cells; type: cell-based, Saccharomyces cerevisiae; conditions: 100 μM monochlorobimane, 6 hours
# Description: as §2
# [8] = substrate: N[C@@H](CCC(=O)N[C@@H](CSSC[C@H](NC(=O)CC[C@H](N)C(=O)O)C(=O)NCC(=O)O)C(=O)NCC(=O)O)C(=O)O; assay: cells, lysate or membranes; conditions: other: MgATP-dependent, uncoupler-insensitive; pH 8.0
# [9] = substrate: N[C@@H](CCC(=O)N[C@@H](CSc1ccc([N+](=O)[O-])cc1[N+](=O)[O-])C(=O)NCC(=O)O)C(=O)O; assay: AtMRP1-dependent uptake by membrane vesicles from pYES3-AtMRP1-transformed DTY168 cells; type: biochemical, Arabidopsis thaliana; conditions: other: MgATP-dependent, uncoupler-insensitive; pH 8.0
# [10] = 80 μM 109CdSO4, compound 1 mM, 5 μM gramicidin-D
# [11] = 3 mM MgATP, 80 μM 109CdSO4, compound 1 mM, 5 μM gramicidin-D
# T1 sequence (P39109 whole entry): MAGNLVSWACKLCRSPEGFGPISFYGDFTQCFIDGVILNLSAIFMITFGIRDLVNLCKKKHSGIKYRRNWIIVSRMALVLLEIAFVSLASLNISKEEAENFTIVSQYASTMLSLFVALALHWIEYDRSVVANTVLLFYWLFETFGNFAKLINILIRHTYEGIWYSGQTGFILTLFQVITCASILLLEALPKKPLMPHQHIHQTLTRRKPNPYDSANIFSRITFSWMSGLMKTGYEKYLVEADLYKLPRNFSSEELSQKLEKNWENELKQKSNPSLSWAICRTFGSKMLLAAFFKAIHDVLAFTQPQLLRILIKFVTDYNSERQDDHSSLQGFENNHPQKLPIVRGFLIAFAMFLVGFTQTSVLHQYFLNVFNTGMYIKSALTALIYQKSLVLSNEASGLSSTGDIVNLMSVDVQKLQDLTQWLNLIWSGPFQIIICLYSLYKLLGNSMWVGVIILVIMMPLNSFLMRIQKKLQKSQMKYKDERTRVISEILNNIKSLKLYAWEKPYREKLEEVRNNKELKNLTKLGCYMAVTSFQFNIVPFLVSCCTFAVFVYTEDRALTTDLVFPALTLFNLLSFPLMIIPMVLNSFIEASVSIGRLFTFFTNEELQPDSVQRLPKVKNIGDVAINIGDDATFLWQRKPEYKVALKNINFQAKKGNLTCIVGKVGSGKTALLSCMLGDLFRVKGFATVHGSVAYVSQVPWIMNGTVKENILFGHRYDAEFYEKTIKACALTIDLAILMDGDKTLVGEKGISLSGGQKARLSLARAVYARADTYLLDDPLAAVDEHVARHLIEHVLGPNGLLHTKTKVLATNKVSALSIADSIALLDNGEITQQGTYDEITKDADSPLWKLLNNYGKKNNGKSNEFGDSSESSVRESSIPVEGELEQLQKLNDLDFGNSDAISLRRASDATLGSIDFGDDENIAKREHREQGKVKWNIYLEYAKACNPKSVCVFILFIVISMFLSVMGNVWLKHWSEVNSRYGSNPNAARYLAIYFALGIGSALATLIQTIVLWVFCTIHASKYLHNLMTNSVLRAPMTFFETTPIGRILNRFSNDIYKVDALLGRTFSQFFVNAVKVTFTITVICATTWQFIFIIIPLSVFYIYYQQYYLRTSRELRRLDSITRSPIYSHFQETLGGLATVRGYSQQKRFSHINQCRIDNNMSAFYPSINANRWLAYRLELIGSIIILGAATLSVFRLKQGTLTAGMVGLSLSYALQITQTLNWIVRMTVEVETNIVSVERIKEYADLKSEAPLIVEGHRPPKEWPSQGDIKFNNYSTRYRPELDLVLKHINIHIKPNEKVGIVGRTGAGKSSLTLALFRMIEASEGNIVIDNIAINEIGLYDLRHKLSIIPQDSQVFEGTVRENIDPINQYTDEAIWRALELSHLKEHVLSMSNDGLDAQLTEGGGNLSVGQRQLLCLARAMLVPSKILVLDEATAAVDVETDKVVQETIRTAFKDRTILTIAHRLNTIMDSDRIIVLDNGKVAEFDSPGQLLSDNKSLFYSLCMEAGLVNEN
molecule,measurement,setting,value
Cc1c(C)n2c(CSC[C@H](NC(=O)CC[C@H](N)C(=O)O)C(=O)NCC(=O)O)c(C)c(=O)n2c1=O [Bimane-GS],"MgATP-dependent, uncoupler-insensitive DNP-GS uptake plus compound",[1],4.5 ± 0.4 nmol/mg/10 minutes
same,"MgATP-dependent, uncoupler-insensitive DNP-GS uptake as percentage of control",[1]; 10 min,69.2%
same,vacuolar fluorescence (bimane-GS),[2],severely attenuated
same,"MgATP-dependent, uncoupler-insensitive DNP-GS uptake plus compound","[3]; 5 μM gramicidin D, GSH, GSSG 1 mM, GS-conjugates 100 μM",25.2 ± 1.1 nmol/mg/10 minutes
same,"MgATP-dependent, uncoupler-insensitive DNP-GS uptake as percentage of control","[3]; 5 μM gramicidin D, GSH, GSSG 1 mM, GS-conjugates 100 μM, 10 min",52.6%
same,inhibition at 100 µM,[3]; 100 μM compound,~50%
[Cd+2] [Cd^2+],"109Cd uptake, -MgATP",[4]; [10],4.3 ± 1.3 nmol/mg/10 minutes
same,"MgATP-dependent, uncoupler-insensitive 109Cd2+ uptake rate","[4]; 80 μM Cd2+, 1 mM GSH",0.8 nmol/mg/min
same,"109Cd uptake, +MgATP",[4]; [11],4.6 ± 2.1 nmol/mg/10 minutes
same,"109Cd uptake, -MgATP",[5]; [10],5.8 ± 2.4 nmol/mg/10 minutes
same,"MgATP-dependent, uncoupler-insensitive 109Cd2+ uptake rate","[5]; 80 μM Cd2+, 1 mM GSH",4.5 nmol/mg/min
same,"109Cd uptake, +MgATP",[5]; [11],5.6 ± 1.5 nmol/mg/10 minutes
same,increase of 109Cd.GS2 uptake into vesicles from pretreated cells,"[5]; 24 hour pretreatment, CdSO4 200 μM, CDNB 150 μM, 50 μM Cd.GS2",1.4 fold
same,increase of [3H]DNP-GS uptake into vesicles from pretreated cells,"[3]; 24 hour pretreatment, CdSO4 200 μM, CDNB 150 μM, 66.2 μM DNP-GS",1.6 fold
same,increase of YCF1-specific mRNA level,[6],1.9 fold
"Cc1c(C)n2c(CCl)c(C)c(=O)n2c1=O [monochlorobimane, syn-(ClCH2,CH3)-1,5-diazabicyclo-[3.3.0]-octa-3,6-dione-2,8-dione]",vacuolar fluorescence (bimane-GS),[7],intense punctate fluorescence
"AtMRP1 (Arabidopsis thaliana) (protein, S. cerevisiae DTY168 (ycf1 null) vacuolar-enriched membrane vesicles) MGFEPLDWYCKPVPNGVWTKTVDYAFGAYTPCAIDSFVLGISHLVLLILCLYRLWLITKDHKVDKFCLRSKWFSYFLALLAAYATAEPLFRLVMRISVLDLDGAGFPPYEAFMLVLEAFAWGSALVMTVVETKTYIHELRWYVRFAVIYALVGDMVLLNLVLSVKEYYGSFKLYLYISEVAVQVAFGTLLFVYFPNLDPYPGYTPVGTENSEDYEYEELPGGENICPERHANLFDSIFFSWLNPLMTLGSKRPLTEKDVWHLDTWDKTETLMRSFQKSWDKELEKPKPWLLRALNNSLGGRFWWGGFWKIGNDCSQFVGPLLLNELLKSMQLNEPAWIGYIYAISIFVGVVLGVLCEAQYFQNVMRVGYRLRSALIAAVFRKSLRLTNEGRKKFQTGKITNLMTTDAESLQQICQSLHTMWSAPFRIIVALVLLYQQLGVASIIGALFLVLMFPIQTVIISKTQKLTKEGLQRTDKRIGLMNEVLAAMDTVKCYAWENSFQSKVQTVRDDELSWFRKAQLLSAFNMFILNSIPVLVTVVSFGVFSLLGGDLTPARAFTSLSLFSVLRFPLFMLPNIITQMVNANVSLNRLEEVLSTEERVLLPNPPIEPGQPAISIRNGYFSWDSKADRPTLSNINLDIPLGSLVAVVGSTGEGKTSLISAMLGELPARSDATVTLRGSVAYVPQVSWIFNATVRDNILFGAPFDQEKYERVIDVTALQHDLELLPGGDLTEIGERGVNISGGQKQRVSMARAVYSNSDVCILDDPLSALDAHVGQQVFEKCIKRELGQTTRVLVTNQLHFLSQVDKILLVHEGTVKEEGTYEELCHSGPLFQRLMENAGKVEDYSEENGEAEVDQTSVKPVENGNANNLQKDGIETKNSKEGNSVLVKREERETGVVSWKVLERYQNALGGAWVVMMLVICYVLTQVFRVSSSTWLSEWTDSGTPKTHGPLFYNIVYALLSFGQVSVTLINSYWLIMSSLYAAKKMHDAMLGSILRAPMVFFQTNPLGRIINRFAKDMGDIDRTVAVFVNMFMGSIAQLLSTVILIGIVSTLSLWAIMPLLVVFYGAYLYYQNTSREIKRMDSTTRSPVYAQFGEALNGLSSIRAYKAYDRMAEINGRSMDNNIRFTLVNMAANRWLGIRLEVLGGLMVWLTASLAVMQNGKAANQQAYASTMGLLLSYALSITSSLTAVLRLASLAENSLNSVERVGNYIEIPSEAPLVIENNRPPPGWPSSGSIKFEDVVLRYRPELPPVLHGVSFLISPMDKVGIVGRTGAGKSSLLNALFRIVELEKGRILIDECDIGRFGLMDLRKVLGIIPQAPVLFSGTVRFNLDPFSEHNDADLWESLERAHLKDTIRRNPLGLDAEVTEAGENFSVGQRQLLSLARALLRRSKILVLDEATAAVDVRTDVLIQKTIREEFKSCTMLIIAHRLNTIIDCDKVLVLDSGKVQEFSSPENLLSNGESSFSKMVQSTGTANAEYLRSITLENKRTREANGDDSQPLEGQRKWQASSRWAAAAQFALAVSLTSSHNDLQSLEIEDDNSILKKTKDAVVTLRSVLEGKHDKEIEDSLNQSDISRERWWPSLYKMVEGLAVMSRLARNRMQHPDYNLEGKSFDWDNVEM",Km,[8],219 µM
same,Km,[9],48.7 ± 15.4 µM and 73.8 µM and 49.7 ± 15.4 µM
